What was measured:
[1] = tested on: H. influenzae strain 49247; test: MIC by micro-dilution method, H. influenzae strain 49247; format: cell-based, Haemophilus influenzae; conditions: compounds of the invention (scaffold drawing 61, 9-hydroxy); 24 hours, 35+/-2° C.
Method: (§1) Susceptibility tests can be used to quantitatively measure the in vitro activity of an antimicrobial agent against a given bacterial isolate. Compounds are tested for in vitro antibacterial activity by a micro-dilution method. Minimal Inhibitory Concentration (MIC) is determined in 96 well microtiter plates utilizing the appropriate broth medium for the observed bacterial isolates. Antimicrobial agents are serially diluted (2-fold) in DMSO to produce a concentration range from about 64 μg/ml to about 0.03 μg/ml. The diluted compounds (2 μl/well) are then transferred into sterile, uninoculated medium (0.2 mL) by use of a 96 fixed tip-pipetting station. The inoculum for each bacterial strain is standardized to approximately 5×10^5 CFU/mL by optical comparison to a 0.5 McFarland turbidity standard. The plates are inoculated with 10 μl/well of adjusted bacterial inoculum. The 96 well plates are covered and incubated at 35+/−2° C. for 24 hours in ambient air environment. Following incubation, plate wells are visually examined by Optical Density measurement for the presence of growth (turbidity). The lowest concentration of an antimicrobial agent at which no visible growth occurs is defined as the MIC.
(§2) All in vitro testing follows the guidelines described in the Approved Standards M7-A7 protocol, published by the Clinical Laboratory Standards Institute (CLSI).
(§3) Table II below provides MIC data for compounds of the invention and related species from U.S. Pat. No. 6,878,691 and US Published Application No. 2009/0118506, each of which is incorporated herein by reference. The values in the table are minimum inhibition concentration (MIC) and are expressed as ug/mL.

[2] = tested on: H. influenzae strain 33929; test: MIC by micro-dilution method, H. influenzae strain 33929; format: cell-based, Haemophilus influenzae; conditions: compounds of the invention (scaffold drawing 61, 9-hydroxy); 24 hours, 35+/-2° C.
Method: as §1, §2, §3

Row | SMILES | H. influenzae MIC strain 49247 [1] | H. influenzae MIC strain 33929 [2]
1 | CCC1OC(=O)C(C)(F)C(=O)C(C)C(OC2OC(C)CC(N(C)C)C2O)C2(C)CC(C)C(O)C(C)C(OCC(=NOCc3ccc(-c4ccno4)nc3)CO2)C1(C)O (mixture of isomers) [Compound 13] | 1 µg/mL | 2 µg/mL
2 | CCC1OC(=O)C(C)(F)C(=O)C(C)C(OC2OC(C)CC(N(C)C)C2O)C2(C)CC(C)C(O)C(C)C(OCC(=NOCc3coc(-c4cccc(N)n4)n3)CO2)C1(C)O (mixture of isomers) [Compound 14] | 1 µg/mL | 2 µg/mL
3 | CCC1OC(=O)C(C)(F)C(=O)C(C)C(OC2OC(C)CC(N(C)C)C2O)C2(C)CC(C)C(O)C(C)C(OCC(=NOCc3ccc(-c4nc(N)cs4)cc3)CO2)C1(C)O (mixture of isomers) [Compound 15] | 4 µg/mL | 4 µg/mL
4 | CCC1OC(=O)C(C)(F)C(=O)C(C)C(OC2OC(C)CC(N(C)C)C2O)C2(C)CC(C)C(O)C(C)C(OCC(=NOCc3ccc(-c4nccs4)cn3)CO2)C1(C)O (mixture of isomers) [Compound 16] | – | 2 µg/mL
5 | CCC1OC(=O)C(C)(F)C(=O)C(C)C(OC2OC(C)CC(N(C)C)C2O)C2(C)CC(C)C(O)C(C)C(OCC(=NOCc3csc(-c4cccc(N)n4)n3)CO2)C1(C)O (mixture of isomers) [Compound 17] | 1 µg/mL | 1 µg/mL
6 | CCC1OC(=O)C(C)(F)C(=O)C(C)C(OC2OC(C)CC(N(C)C)C2O)C2(C)CC(C)C(O)C(C)C(OCC(=NOCc3ccc(-c4nc(N)cs4)nc3)CO2)C1(C)O (mixture of isomers) [Compound 18] | 1 µg/mL | 2 µg/mL
7 | CC[C@H]1OC(=O)[C@H](C)C(=O)[C@H](C)[C@@H](O[C@@H]2O[C@H](C)C[C@H](N(C)C)[C@H]2O)[C@@]2(C)C[C@@H](C)[C@H](O)[C@H](C)C(OCC(=NOCc3ccc(-c4nc(N)ns4)cn3)CO2)[C@]1(C)O [Compound 2] | 1 µg/mL | 1 µg/mL
8 | CC[C@H]1OC(=O)[C@H](C)C(=O)[C@H](C)[C@@H](O[C@@H]2O[C@H](C)C[C@H](N(C)C)[C@H]2O)[C@@]2(C)C[C@@H](C)[C@H](O)[C@H](C)C(OCC(=NOCc3ccc(-c4nc(N)cs4)cn3)CO2)[C@]1(C)O [Compound 3] | 2 µg/mL | 4 µg/mL
9 | CC[C@H]1OC(=O)[C@H](C)C(=O)[C@H](C)[C@@H](O[C@@H]2O[C@H](C)C[C@H](N(C)C)[C@H]2O)[C@@]2(C)C[C@@H](C)[C@H](O)[C@H](C)C(OCC(=NOCc3ccc(-c4ccno4)nc3)CO2)[C@]1(C)O [Compound 4] | 1 µg/mL | 1 µg/mL
10 | CC[C@H]1OC(=O)[C@H](C)C(=O)[C@H](C)[C@@H](O[C@@H]2O[C@H](C)C[C@H](N(C)C)[C@H]2O)[C@@]2(C)C[C@@H](C)[C@H](O)[C@H](C)C(OCC(=NOCc3ccc(-n4ccc(N)n4)cn3)CO2)[C@]1(C)O [Compound 5] | 2 µg/mL | 2 µg/mL
11 | CC[C@H]1OC(=O)[C@H](C)C(=O)[C@H](C)[C@@H](O[C@@H]2O[C@H](C)C[C@H](N(C)C)[C@H]2O)[C@@]2(C)C[C@@H](C)[C@H](O)[C@H](C)C(OCC(=NOCc3cccc(-c4cccc(N)n4)n3)CO2)[C@]1(C)O [Compound 6] | 1 µg/mL | 1 µg/mL
12 | CC[C@H]1OC(=O)[C@H](C)C(=O)[C@H](C)[C@@H](O[C@@H]2O[C@H](C)C[C@H](N(C)C)[C@H]2O)[C@@]2(C)C[C@@H](C)[C@H](O)[C@H](C)C(OCC(=NOCc3ccc(-n4ccc(N)n4)nc3)CO2)[C@]1(C)O [Compound 7] | 1 µg/mL | 1 µg/mL
13 | CC[C@H]1OC(=O)[C@H](C)C(=O)[C@H](C)[C@@H](O[C@@H]2O[C@H](C)C[C@H](N(C)C)[C@H]2O)[C@@]2(C)C[C@@H](C)[C@H](O)[C@H](C)C(OCC(=NOCc3ncc(-c4cccc(N)n4)s3)CO2)[C@]1(C)O [Compound 8] | 1 µg/mL | 2 µg/mL
14 | CC[C@H]1OC(=O)[C@H](C)C(=O)[C@H](C)[C@@H](O[C@@H]2O[C@H](C)C[C@H](N(C)C)[C@H]2O)[C@@]2(C)C[C@@H](C)[C@H](O)[C@H](C)C(OCC(=NOCc3csc(-c4cccc(N)n4)n3)CO2)[C@]1(C)O [Compound 9] | 1 µg/mL | 1 µg/mL
15 | CC[C@H]1OC(=O)[C@@](C)(F)C(=O)[C@H](C)[C@@H](O[C@@H]2O[C@H](C)C[C@H](N(C)C)[C@H]2O)[C@@]2(C)C[C@@H](C)[C@H](O)[C@H](C)C(OCC(=NOCc3ccc(-c4nc(N)cs4)cn3)CO2)[C@]1(C)O [Compound 10] | 1 µg/mL | 4 µg/mL
16 | CC[C@H]1OC(=O)[C@@](C)(F)C(=O)[C@H](C)[C@@H](O[C@@H]2O[C@H](C)C[C@H](N(C)C)[C@H]2O)[C@@]2(C)C[C@@H](C)[C@H](O)[C@H](C)C(OCC(=NOCc3ncc(-c4cccc(N)n4)s3)CO2)[C@]1(C)O [Compound 11] | 1 µg/mL | 1 µg/mL
17 | CC[C@H]1OC(=O)[C@@](C)(F)C(=O)[C@H](C)[C@@H](O[C@@H]2O[C@H](C)C[C@H](N(C)C)[C@H]2O)[C@@]2(C)C[C@@H](C)[C@H](O)[C@H](C)C(OCC(=NOCc3cnc(-c4cccc(N)n4)s3)CO2)[C@]1(C)O [Compound 12] | 1 µg/mL | 2 µg/mL
